In assay [1] the target is GST-MCL-1 (Homo sapiens, UniProt Q07820). The assay can be described thus: TR-FRET MCL-1 binding assay (competition with probe F-Bak). As to the method:
Tb-anti-GST antibody was purchased from Invitrogen (Catalog No. PV4216).
For the assay, an acoustic dispenser was used to prepare dilution series from 10 mM test compounds in 100% DMSO and directly transfer 160 nL into low volume 384-well assay plates. 8 μL of a protein/probe/antibody mix was then added to each well resulting in final concentrations listed below: • Test compound: 11 three-fold dilutions beginning at 25 μM
The samples were then mixed on a shaker for 1 minute and incubated for an additional 2 hours at room temperature. For each assay plate, a probe/antibody and protein/antibody/probe mixture were included as a negative and a positive control, respectively. Fluorescence was measured on the Envision (Perkin Elmer) using a 340/35 nm excitation filter and 520/525 (F-Bak) and 495/510 nm (Tb-labeled anti-his antibody) emission filters. […] The TR-FRET assay can be performed in the presence of varying concentrations of human serum (HS) or fetal bovine serum (FBS). Compounds were tested both without HS and in the presence of 10% HS.
In general terms: Time-resolved FRET reads energy transfer from a long-lived donor to a nearby acceptor.

Assay [2] deals with AMO-1 human multiple myeloma tumor cell line. The assay can be described thus: AMO-1 cell viability assay (CellTiter-Glo, 24 hours). Type of assay: cell-based. (ATP-based viability assays read luminescence as a measure of living cells.)
Assay [3] deals with NCI-H929 human multiple myeloma tumor cell line. Kind of assay: NCI-H929 cell viability assay (CellTiter-Glo, 24 hours). Type of assay: cell-based.
Where [4] appears, read: MCL-1 Binding Ki (nM, 10% HS), in the presence of 10% HS (human serum).
Setting [5] is: without HS, read-out: MCL-1 Binding Ki.
[6] abbreviates: Homo sapiens, AMO1, 24 h, read-out: AMO-1 Viability IC50 (μM, 10% FBS), 10% FBS, 24 hours of compound treatment.
The mark [7] stands for this setting: Homo sapiens, NCI-H929, 24 h, read-out: H929 Viability IC50 (μM, 10% FBS), 10% FBS, 24 hours of compound treatment.
The mark [8] stands for this setting: read-out: AMO-1 Viability IC50 (μM, 10% FBS), 10% FBS, 24 hours of compound treatment.
Where [9] appears, read: read-out: H929 Viability IC50 (μM, 10% FBS), 10% FBS, 24 hours of compound treatment.

Molecules are shown by their SMILES. Where two headings read alike, the source gives them in different places.

Chain of GST-MCL-1 (Q07820 whole entry): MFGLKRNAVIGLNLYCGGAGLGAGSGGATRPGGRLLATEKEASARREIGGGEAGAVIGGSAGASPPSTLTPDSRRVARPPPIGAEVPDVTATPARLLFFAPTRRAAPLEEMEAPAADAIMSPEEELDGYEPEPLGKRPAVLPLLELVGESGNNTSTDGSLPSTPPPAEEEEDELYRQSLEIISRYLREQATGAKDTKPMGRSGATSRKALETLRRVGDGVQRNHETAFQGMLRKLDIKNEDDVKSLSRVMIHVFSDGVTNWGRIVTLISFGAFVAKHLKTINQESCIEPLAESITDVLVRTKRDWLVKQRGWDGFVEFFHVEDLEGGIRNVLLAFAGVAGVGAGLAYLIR

What is called Ki is a dissociation constant, usually derived from enzyme kinetics or from competition with a known ligand. The term IC50 denotes the concentration that gives 50% inhibition. With `COCCOCCOCC1(F)CC=C(c2nccc(COc3ccc4cc3C[C@H](C(=O)O)Oc3ncnc5sc(-c6ccc(F)cc6)c(c35)-c3c(C)c(Cl)c(c(Cl)c3C)O[C@H](CN3CCN(C)CC3)CO4)n2)CC1` (single isomer, unassigned) [Example 86, (7R,16R)-19,23-dichloro-10-({2-[(4S*)-4-fluoro-4-{[2-(2-methoxyethoxy)ethoxy]methyl}cyclohex-1-en-1-yl]pyrimidin-4-yl}methoxy)-1-(4-fluorophenyl)-20,22-dimethyl-16-[(4-methylpiperazin-1-yl)methyl]-7,8,15,16-tetrahydro-18,21-etheno-13,9-(metheno)-6,14,17-trioxa-2-thia-3,5-diazacyclononadeca[1,2,3-cd]indene-7-carboxylic Acid], the Ki in assay [1] (setting [4]) was 0.102 nM; in assay [1] (setting [5]), 0.008 nM. Besides, the IC50 was found to be 0.000105 µM in assay [2] (setting [6]) and 0.000258 µM in assay [3] (setting [7]).

As for `COCCOCCOCCOCCOCCOCC1(F)CC=C(c2nccc(COc3ccc4cc3C[C@H](C(=O)O)Oc3ncnc5sc(-c6ccc(F)cc6)c(c35)-c3c(C)c(Cl)c(c(Cl)c3C)O[C@H](CN3CCN(C)CC3)CO4)n2)CC1` (single isomer, unassigned) [Example 97, (7R,16R)-19,23-dichloro-10-({2-[(4S*)-4-fluoro-4-(2,5,8,11,14,17-hexaoxaoctadecan-1-yl)cyclohex-1-en-1-yl]pyrimidin-4-yl}methoxy)-1-(4-fluorophenyl)-20,22-dimethyl-16-[(4-methylpiperazin-1-yl)methyl]-7,8,15,16-tetrahydro-18,21-etheno-13,9-(metheno)-6,14,17-trioxa-2-thia-3,5-diazacyclononadeca[1,2,3-cd]indene-7-carboxylic Acid], the Ki in assay [1] (setting [4]) was 0.137 nM; in assay [1] (setting [5]), 0.016 nM. Moreover, the IC50 in assay [2] (setting [6]) is 0.0006 µM; in assay [3] (setting [7]), 0.000482 µM.

For `COCCOCCOCCOCCOCCOCC1(F)CC=C(c2nccc(COc3ccc4cc3C[C@H](C(=O)O)Oc3ncnc5sc(-c6ccc(F)cc6)c(c35)-c3c(C)c(Cl)c(c(Cl)c3C)O[C@H](CN3CCN(C)CC3)CO4)n2)CC1` (single isomer, unassigned) [Example 100, (7R,16R)-19,23-dichloro-10-({2-[(4R*)-4-fluoro-4-(2,5,8,11,14,17-hexaoxaoctadecan-1-yl)cyclohex-1-en-1-yl]pyrimidin-4-yl}methoxy)-1-(4-fluorophenyl)-20,22-dimethyl-16-[(4-methylpiperazin-1-yl)methyl]-7,8,15,16-tetrahydro-18,21-etheno-13,9-(metheno)-6,14,17-trioxa-2-thia-3,5-diazacyclononadeca[1,2,3-cd]indene-7-carboxylic Acid], the Ki in assay [1] (setting [4]) amounted to 0.176 nM; in assay [1] (setting [5]), 0.017 nM. The IC50 in assay [2] (setting [8]) is 0.00033 µM; in assay [3] (setting [9]), 0.000547 µM.

On to `COCCOCCOCCOCC1(F)CC=C(c2nccc(COc3ccc4cc3C[C@H](C(=O)O)Oc3ncnc5sc(-c6ccc(F)cc6)c(c35)-c3c(C)c(Cl)c(c(Cl)c3C)O[C@H](CN3CCN(C)CC3)CO4)n2)CC1` (single isomer, unassigned) [Example 101, (7R,16R)-19,23-dichloro-1-(4-fluorophenyl)-10-({2-[(4S*)-4-fluoro-4-(2,5,8,11-tetraoxadodecan-1-yl)cyclohex-1-en-1-yl]pyrimidin-4-yl}methoxy)-20,22-dimethyl-16-[(4-methylpiperazin-1-yl)methyl]-7,8,15,16-tetrahydro-18,21-etheno-13,9-(metheno)-6,14,17-trioxa-2-thia-3,5-diazacyclononadeca[1,2,3-cd]indene-7-carboxylic Acid], for which the Ki turned out to be 0.235 nM in assay [1] (setting [4]) and 0.02 nM in assay [1] (setting [5]). Also, the half-maximal inhibitory concentration (IC50) came out at 0.000195 µM in assay [2] (setting [6]) and 0.000298 µM in assay [3] (setting [7]).

Regarding `COCCOCCOCCOCCOCC1(F)CC=C(c2nccc(COc3ccc4cc3C[C@H](C(=O)O)Oc3ncnc5sc(-c6ccc(F)cc6)c(c35)-c3c(C)c(Cl)c(c(Cl)c3C)O[C@H](CN3CCN(C)CC3)CO4)n2)CC1` (single isomer, unassigned) [Example 106, (7R,16R)-19,23-dichloro-10-({2-[(4R*)-4-fluoro-4-(2,5,8,11,14-pentaoxapentadecan-1-yl)cyclohex-1-en-1-yl]pyrimidin-4-yl}methoxy)-1-(4-fluorophenyl)-20,22-dimethyl-16-[(4-methylpiperazin-1-yl)methyl]-7,8,15,16-tetrahydro-18,21-etheno-13,9-(metheno)-6,14,17-trioxa-2-thia-3,5-diazacyclononadeca[1,2,3-cd]indene-7-carboxylic Acid], the Ki in assay [1] (setting [4]) was 0.166 nM; in assay [1] (setting [5]) it was 0.036 nM. Also, the half-maximal inhibitory concentration (IC50) in assay [2] (setting [6]) stood at 0.000216 µM; in assay [3] (setting [7]) it was 0.000288 µM.

As for `COCCOCCOCCOCC1(F)CC=C(c2nccc(COc3ccc4cc3C[C@H](C(=O)O)Oc3ncnc5sc(-c6ccc(F)cc6)c(c35)-c3c(C)c(Cl)c(c(Cl)c3C)O[C@H](CN3CCN(C)CC3)CO4)n2)CC1` (single isomer, unassigned) [Example 111, (7R,16R)-19,23-dichloro-1-(4-fluorophenyl)-10-({2-[(4R*)-4-fluoro-4-(2,5,8,11-tetraoxadodecan-1-yl)cyclohex-1-en-1-yl]pyrimidin-4-yl}methoxy)-20,22-dimethyl-16-[(4-methylpiperazin-1-yl)methyl]-7,8,15,16-tetrahydro-18,21-etheno-13,9-(metheno)-6,14,17-trioxa-2-thia-3,5-diazacyclononadeca[1,2,3-cd]indene-7-carboxylic Acid], the Ki is 0.101 nM in assay [1] (setting [4]) and 0.014 nM in assay [1] (setting [5]). For the same compound, the IC50 in assay [2] (setting [8]) worked out at 0.000161 µM; in assay [3] (setting [9]), 0.000298 µM.

Consider `COCCOCCOCCOCC1(C)CC=C(c2nccc(COc3ccc4cc3C[C@H](C(=O)O)Oc3ncnc5sc(-c6ccc(F)cc6)c(c35)-c3c(C)c(Cl)c(c(Cl)c3C)O[C@H](CN3CCN(C)CC3)CO4)n2)CC1` (single isomer, unassigned) [Example 112, (7R,16R)-19,23-dichloro-1-(4-fluorophenyl)-20,22-dimethyl-16-[(4-methylpiperazin-1-yl)methyl]-10-({2-[(4R*)-4-methyl-4-(2,5,8,11-tetraoxadodecan-1-yl)cyclohex-1-en-1-yl]pyrimidin-4-yl}methoxy)-7,8,15,16-tetrahydro-18,21-etheno-13,9-(metheno)-6,14,17-trioxa-2-thia-3,5-diazacyclononadeca[1,2,3-cd]indene-7-carboxylic Acid], for which the Ki in assay [1] (setting [4]) stood at 0.217 nM; in assay [1] (setting [5]) it was 0.012 nM. Also, the IC50 is 0.000132 µM in assay [2] (setting [6]) and 0.000283 µM in assay [3] (setting [7]).

For the compound `COCCOCCOCCOCCOCC1(F)CC=C(c2nccc(COc3ccc4cc3C[C@H](C(=O)O)Oc3ncnc5sc(-c6ccc(F)cc6)c(c35)-c3c(C)c(Cl)c(c(Cl)c3C)O[C@H](CN3CCN(C)CC3)CO4)n2)CC1` (single isomer, unassigned) [Example 114, (7R,16R)-19,23-dichloro-10-({2-[(4S*)-4-fluoro-4-(2,5,8,11,14-pentaoxapentadecan-1-yl)cyclohex-1-en-1-yl]pyrimidin-4-yl}methoxy)-1-(4-fluorophenyl)-20,22-dimethyl-16-[(4-methylpiperazin-1-yl)methyl]-7,8,15,16-tetrahydro-18,21-etheno-13,9-(metheno)-6,14,17-trioxa-2-thia-3,5-diazacyclononadeca[1,2,3-cd]indene-7-carboxylic Acid], the Ki in assay [1] (setting [4]) came to 0.15 nM; in assay [1] (setting [5]), 0.018 nM. Further, the 50% inhibitory concentration (IC50) was 0.000197 µM in assay [2] (setting [8]) and 0.000331 µM in assay [3] (setting [9]).

For `COCCOCCOCCOCC1(C)CC=C(c2nccc(COc3ccc4cc3C[C@H](C(=O)O)Oc3ncnc5sc(-c6ccc(F)cc6)c(c35)-c3c(C)c(Cl)c(c(Cl)c3C)O[C@H](CN3CCN(C)CC3)CO4)n2)CC1` (single isomer, unassigned) [Example 119, (7R,16R)-19,23-dichloro-1-(4-fluorophenyl)-20,22-dimethyl-16-[(4-methylpiperazin-1-yl)methyl]-10-({2-[(4S*)-4-methyl-4-(2,5,8,11-tetraoxadodecan-1-yl)cyclohex-1-en-1-yl]pyrimidin-4-yl}methoxy)-7,8,15,16-tetrahydro-18,21-etheno-13,9-(metheno)-6,14,17-trioxa-2-thia-3,5-diazacyclononadeca[1,2,3-cd]indene-7-carboxylic Acid], the inhibition constant (Ki) stood at 0.16 nM in assay [1] (setting [4]) and 0.004 nM in assay [1] (setting [5]). Also, the IC50 came to 0.000181 µM in assay [2] (setting [8]) and 0.000333 µM in assay [3] (setting [9]).

These data come from patent US20250313572A1, “MACROCYCLIC MCL-1 INHIBITORS AND METHODS OF USE” (AbbVie Inc., priority 2017, published 2025).
